Results published in US20090042790A1, “TRANSMUCOSAL DELIVERY OF PEPTIDE DERIVATIVES” (NASTECH PHARMACEUTICAL COMPANY INC., priority 2005, published 2009).
*1 amine or outer side, *2 acyl side, *3 side chain or, on linkers, in order; H or OH if unused. Where a SMILES comes first, the peptide text is derived from it. Bridges are numbered along the chain shown (N, C = ends). [ ]: non-standard residue; d: D form. The star is where a group is joined. X1 = COc1ccc(C2CCC(N[*:1])(C(=O)[*:2])CC2)cc1; Pentanoyl = CCCCC(=O)*

What was measured:
[1] = target: T1, melanocortin-1 (MC1 receptor) (Homo sapiens, UniProt Q01726); assay: cAMP assay in HEK293 cells expressing the MC1 receptor; assay type: cell-based; settings: 1×10^−11 to 1×10^−5 M, FIG. 2, read-out: effective concentration to reach a 50% response level (EC50), cAMP production
T1 construct: expressed in transfected cells; host or cells: HEK293
Description: FIG. 2: The degree of MC4 receptor specificity of the 2 kDa PEGylated MC4-RA and the unmodified MC4-RA was compared. The ability to stimulate cAMP production in cells in vitro was assayed; HEK293 cells expressed the melanocortin-1 (MC1 receptor). A measured increase in cAMP levels indicated a lack of MC4 receptor specificity. The 2 kDa PEGylated and unmodified MC4-RA were incubated in a concentration range of approximately 1×10^−11 to 1×10^−5 M with HEK293 cells that were expressing the MC1 receptor. The maximum quantity of cAMP was normalized to 100% or “% Max Response” and the concentration of 2 kDA PEGylated or unmodified MC4-RA was shown as the log of the Molar concentration. The effective concentration to achieve a 50% response (EC50) is shown.
The degree of MC4 receptor specificity of the 2 kDa PEGylated MC4-RA and the unmodified MC4-RA was compared. […] In this instance, a measured increase in cAMP levels would indicate a lack of MC4 receptor specificity. […] The experiment was performed in triplicate and cAMP levels were measured with the cAMP Tropix assay kit. The maximum quantity of cAMP was normalized to 100% or “% Max Response” and the concentration of 2 kDa PEGylated or unmodified MC4-RA is shown as the log of the Molar concentration.

[2] = tested on: male DOI mice (obesity mouse model system); assay: Cumulative food intake in male DOI mice; assay type: in vivo; settings: high dose group (doses 1.25, 2.5, 5 mg/kg); 16 and 24 hours after dose administration; vs 30% PEG control; FIG. 3
Description: The effect of the low molecular weight PEGylated MC4-RA and unmodified MC4-RA on food intake was evaluated under regular light cycle in male DOI mice (obesity mouse model system). Control mice were administered a 30% PEG formulation. For the unmodified MC4-RA in vivo study, individual subjects categorized into three separate study groups, based on dosage levels, were administered 1.25 mg/kg, 2.5 mg/kg or 5 mg/kg of unmodified MC4-RA. For the 2 kDa PEGylated MC4-RA in vivo study, individual subjects categorized into three separate study groups, again based on dosage levels, were administered 5 mg/kg, 10 mg/kg and 20 mg/kg 2 kDa PEGylated MC4-RA. The effective does is higher for the PEGylated MC4-RA due to the tripled molecular weight resulting from the conjugation of a 2 kDa PEG to the MC4-RA molecule.

[3] = target: T2, melanocortin-4 cell receptor (MC4 receptor) (Homo sapiens, UniProt P32245); assay: cAMP assay in HEK293 cells expressing the MC4 receptor; assay type: cell-based; settings: 1×10^−11 to 1×10^−5 M, FIG. 1, read-out: effective concentration to reach a 50% response level (EC50), cAMP production
T2 construct: expressed in transfected cells; host or cells: HEK293
Description: FIG. 1: The ability of the 2 kDa PEGylated MC4-RA and unmodified MC-4RA to stimulate cAMP production in cells expressing the melanocortin-4 cell receptor (MC4 receptor) was compared. HEK293 cells expressing the MC4 receptor were incubated with either the 2 kDa PEGylated MC4-RA or the unmodified MC4-RA. The concentrations used for either MC4-RA in the cAMP assay ranged from approximately 1×10^−11 to 1×10^−5 M. The maximum quantity of cAMP was normalized to 100% or “% Max Response” and the concentration of 2 kDA PEGylated or unmodified MC4-RA was shown as the log of the Molar concentration. The effective concentration to achieve a 50% response (EC50) is shown.
An ideal property of any therapeutic agent is target specificity as induction, for example, of unwanted cell surface receptors and/or cell signaling pathways may lead to deleterious outcomes in the patient subject. […]
Potency was measured as the ability of the 2 kDa PEGylated MC4-RA or the unmodified MC4-RA to stimulate cAMP production in cells expressing the melanocortin-4 cell receptor (MC4 receptor). […] The experiment was performed in triplicate and cAMP levels were measured with the cAMP Tropix assay kit. The maximum quantity of cAMP was normalized to 100% or “% Max Response” and the concentration of 2 kDa PEGylated or unmodified MC4-RA is shown as the log of the Molar concentration.

[4] = tested on: EpiAirway™ epithelial cell monolayer; assay: Transepithelial electrical resistance (TEER) of EpiAirway epithelial cell monolayer; assay type: cell-based; settings: positive TEER control
Description: The epithelial cells are grown on porous membrane-bottomed cell culture inserts at an air-liquid interface, which results in differentiation of the cells to a highly polarized morphology. The apical surface is ciliated with a microvillous ultrastructure and the epithelium produces mucus (the presence of mucin has been confirmed by immunoblotting). The inserts have a diameter of 0.875 cm, providing a surface area of 0.6 cm^2. The cells are plated onto the inserts at the factory approximately three weeks before shipping. One “kit” consists of 24 units.
These junctions confer a transepithelial resistance of several hundred ohms×cm^2 in excised airway tissues.

T1 sequence (Q01726 whole entry): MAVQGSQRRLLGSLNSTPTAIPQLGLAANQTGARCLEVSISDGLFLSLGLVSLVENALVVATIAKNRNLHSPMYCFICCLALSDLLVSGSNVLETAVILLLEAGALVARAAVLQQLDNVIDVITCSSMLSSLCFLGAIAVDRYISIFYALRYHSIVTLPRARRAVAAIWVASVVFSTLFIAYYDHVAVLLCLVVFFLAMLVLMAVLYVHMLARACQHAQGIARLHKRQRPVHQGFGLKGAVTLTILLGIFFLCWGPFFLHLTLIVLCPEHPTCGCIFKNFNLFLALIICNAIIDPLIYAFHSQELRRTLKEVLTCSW
T2 sequence (P32245 whole entry): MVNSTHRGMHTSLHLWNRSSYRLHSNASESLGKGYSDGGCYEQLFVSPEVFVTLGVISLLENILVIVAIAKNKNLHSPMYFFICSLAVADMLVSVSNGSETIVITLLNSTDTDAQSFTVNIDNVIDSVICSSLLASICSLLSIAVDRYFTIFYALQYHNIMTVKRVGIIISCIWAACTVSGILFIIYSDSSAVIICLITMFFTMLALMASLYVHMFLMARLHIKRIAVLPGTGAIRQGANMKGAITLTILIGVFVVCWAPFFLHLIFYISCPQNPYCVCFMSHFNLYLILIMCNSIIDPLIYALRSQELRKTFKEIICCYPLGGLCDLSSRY

Row | EC50 [1] [nM] | EC50 [3] [nM] | Compound | cumulative food intake [2] | Average TEER Measurement ([4]; Table 3 formulation #11: 9% Triton X-100 only) | Average TEER Measurement ([4]; Table 5 formulation #17: 9% Triton X-100 only)
1 | ~800 | 0.5 | CCCCC(=O)N[C@H]1CCC(=O)NCCCC[C@@H](C(N)=O)NC(=O)[C@H](Cc2c[nH]c3ccccc23)NC(=O)[C@H](CCCNC(=N)N)NC(=O)[C@@H](Cc2ccccc2)NC(=O)C2(CCC(c3ccc(OC)cc3)CC2)NC1=O (some centres unmarked) [unmodified MC4-RA] (Pentanoyl-E[X1][dF]RWK-NH2; lactam 1-6) | significant reduction on cumulative food intake |  | 
2 |  |  | octylphenolpoly(ethyleneglycolether) [Triton X-100 ™] |  | 1.5 | 1.2
